Assays:
Assay type in all cases: functional
Details in all cases: read-out: IZ
Bacillus subtilis = assay: Antibacterial activity against Bacillus subtilis at 100 ug/ml by cup plate method
Pseudomonas aeruginosa = assay: Antibacterial activity against Pseudomonas aeruginosa at 100 ug/ml by cup-plate method
Candida albicans = assay: Antifungal activity against Candida albicans at 100 ug/ml by cup-plate method
Staphylococcus aureus = assay: Antibacterial activity against Staphylococcus aureus at 100 ug/ml by cup-plate method
Escherichia coli = assay: Antibacterial activity against Escherichia coli at 100 ug/ml by cup-plate method

N#Cc1cc([N+](=O)[O-])ccc1NS(=O)(=O)c1ccc(NC(=O)c2cn(CCO)c3c(cc(O)c4ncccc43)c2=O)cc1
zone of inhibition at 100 µg/mL (Bacillus subtilis): 6 mm
zone of inhibition at 100 µg/mL (Pseudomonas aeruginosa): 8 mm
zone of inhibition at 100 µg/mL (Candida albicans): 2 mm
zone of inhibition at 100 µg/mL (Staphylococcus aureus): 8 mm
zone of inhibition at 100 µg/mL (Escherichia coli): 6 mm

O=C(NC(=S)Nc1ccc(O)cc1)c1cn(CCO)c2c(cc(Cl)c3ncccc32)c1=O
zone of inhibition at 100 µg/mL (Bacillus subtilis): 11 mm
zone of inhibition at 100 µg/mL (Pseudomonas aeruginosa): 11 mm
zone of inhibition at 100 µg/mL (Candida albicans): 5 mm
zone of inhibition at 100 µg/mL (Staphylococcus aureus): 12 mm
zone of inhibition at 100 µg/mL (Escherichia coli): 12 mm

O=C(Nc1ccc(S(=O)(=O)Nc2ccc(Cl)cc2)cc1)c1cn(CCO)c2c(cc(O)c3ncccc32)c1=O
zone of inhibition at 100 µg/mL (Bacillus subtilis): 6 mm
zone of inhibition at 100 µg/mL (Pseudomonas aeruginosa): 4 mm
zone of inhibition at 100 µg/mL (Candida albicans): 0 mm
zone of inhibition at 100 µg/mL (Staphylococcus aureus): 0 mm
zone of inhibition at 100 µg/mL (Escherichia coli): 4 mm

Cc1ccc(NC(=O)c2cn(CCO)c3c(cc(O)c4ncccc43)c2=O)cc1
zone of inhibition at 100 µg/mL (Bacillus subtilis): 8 mm
zone of inhibition at 100 µg/mL (Pseudomonas aeruginosa): 9 mm
zone of inhibition at 100 µg/mL (Candida albicans): 3 mm
zone of inhibition at 100 µg/mL (Staphylococcus aureus): 9 mm
zone of inhibition at 100 µg/mL (Escherichia coli): 10 mm

Cc1ccccc1NS(=O)(=O)c1ccc(NC(=O)c2cn(CCO)c3c(cc(O)c4ncccc43)c2=O)cc1
zone of inhibition at 100 µg/mL (Bacillus subtilis): 6 mm
zone of inhibition at 100 µg/mL (Pseudomonas aeruginosa): 4 mm
zone of inhibition at 100 µg/mL (Candida albicans): 0 mm
zone of inhibition at 100 µg/mL (Staphylococcus aureus): 4 mm
zone of inhibition at 100 µg/mL (Escherichia coli): 0 mm

COc1ccc(NC(=S)NC(=O)c2cn(CCO)c3c(cc(O)c4ncccc43)c2=O)cc1
zone of inhibition at 100 µg/mL (Bacillus subtilis): 6 mm
zone of inhibition at 100 µg/mL (Pseudomonas aeruginosa): 8 mm
zone of inhibition at 100 µg/mL (Candida albicans): 2 mm
zone of inhibition at 100 µg/mL (Staphylococcus aureus): 8 mm
zone of inhibition at 100 µg/mL (Escherichia coli): 8 mm

O=C(NC(=S)Nc1cccc(Cl)c1)c1cn(CCO)c2c(cc(Cl)c3ncccc32)c1=O
zone of inhibition at 100 µg/mL (Bacillus subtilis): 10 mm
zone of inhibition at 100 µg/mL (Pseudomonas aeruginosa): 9 mm
zone of inhibition at 100 µg/mL (Candida albicans): 3 mm
zone of inhibition at 100 µg/mL (Staphylococcus aureus): 8 mm
zone of inhibition at 100 µg/mL (Escherichia coli): 9 mm

Cc1cccc(NC(=O)c2cn(CCO)c3c(cc(O)c4ncccc43)c2=O)c1
zone of inhibition at 100 µg/mL (Bacillus subtilis): 6 mm
zone of inhibition at 100 µg/mL (Pseudomonas aeruginosa): 6 mm
zone of inhibition at 100 µg/mL (Candida albicans): 1 mm
zone of inhibition at 100 µg/mL (Staphylococcus aureus): 5 mm
zone of inhibition at 100 µg/mL (Escherichia coli): 0 mm

— ChEMBL document CHEMBL3044825, “Synthesis and in vitro microbial activities of amides of pyridoquinolone” (2011)
